Data set [1] in a line: Log P by RP-HPLC (HPLC-PDA), extrapolation of Log k to 0% MeOH. It is filed as physicochemical. The settings on record: for Log k / Retention factor (k): RP-C18. As to the method:
For each compound, the retention time was reported at different percentages of mobile phases (Table 1). See Materials and Methods and Supplementary Materials for the detailed procedures. (1) k= tR− tM/tM where tR is the retention time of the sample and tM is the retention time of blank (methanol).
Stock solutions of each compound were prepared as follow: 1 mg of the synthesized compound and RSV (control) was weighted and dissolved in 1 mL of dimethyl sulfoxide (DMSO). The working solutions were prepared in methanol at 100 µg/mL. 20 µL of working solutions was injected in HPLC system without pre-treatment.
The HPLC analyses for all new compounds were carried out in isocratic conditions with Milli-Q Water (18.2 MΩ-cm at 25 °C) as solvent A and MeOH as solvent B in different percentages reported in […]. RP-C18 stationary phase (LiChrosorb C18, 150 × 4.6 mm, 5 µm) column was used. All compounds were detected at their maximum wavelength: 322 nm for 1, 301 nm for 2, 324 nm for 3, 324 nm for 4, 373 nm for 5, 322 nm for 6, 320 nm for 7, whereas RSV was detected at 306 nm. The total run time was kept until sample elution.

The subject of data set [2] is C2C12 cells. Description: NBT assay, superoxide anion detection. The settings on record: C2C12, 24 h incubation, 1 and 10 μM. It is filed as cell-based, mouse. How it is done: At first, the antioxidant effect of compound 6 was assessed by NBT assay (Figure 5). The NBT assay is based on the reduction of NBT into formazan by superoxide anion O2^-. […] The concentration of superoxide anion radical in the cells was determined by spectrophotometric method and is based on the reduction of Nitro blue tetrazolium chloride to Nitro blue-formazan in the presence of O2^-.
Since that during aging, among the ROS there are radicals as superoxide anion that can levels increase, [32] we used NBT assay in order to evaluate the antioxidant capacity of compound 6. C2C12 cells (10^6 cells) were stimulated with or w/o the compound 6 at 1 and 10 μM together with the RSV for 24 h, harvested, centrifuged for 5 min at 1200 rpm and resuspended in 1 mL 0.9% NaCl in which NBT (Nitro blue tetrazolium chloride) is dissolved 1 mg/mL. The cells were incubated for 3 h at 37 °C, centrifuged (for 10 min at 1200 rpm), resuspended in 1 mL DMSO and left 20’ in 37 °C. For the assay, the cells were plated in a 96 well plate (2 × 10^5 cell/well) and read by spectrophotometer at 550 nm on a scanning multi-well spectrophotometer (Cary50MPR, Varian, Santa Clara, CA, USA).

For data set [3], the system named is C2C12 cells. Kind of data set: MTT assay, cell vitality/proliferation. Type of data set: cell-based, mouse. How it is done:
The oxidative stress plays one of the key roles in cell’s life path. For these reasons, to evaluate the possible cytotoxic effects of compounds 1–7 and their effect on the cell proliferative capacity and to define a suitable concentration range, all the new synthesized compounds 1–7 were evaluated for their cytotoxic activity at three different concentrations (1, 10 and 100 μM) via standard MTT assay, using C2C12 cell line (Figure 3). Due to well-known antioxidant and neurodegenerative senescence prevention abilities in addition to enhancing the beneficial effects of physical exercise on the skeletal muscles of the elderly, RSV was used as reference compound [54, 55]. […] For this reason, we performed the same assay also at 48 h for the compounds 5, 6 and RSV (Figure 4).
Prompted by the results obtained for compound 6 as a scavenge ROS due the presence of halogenated groups, we used the widely C2C12 mouse cells as a myogenic model, to study its antioxidant effects following both the evaluation of superoxide anion radical concentration and chemical insults, such as from H2O2. C2C12 cells (CRL 1772; American Type Culture Collection, Rockville, MD, USA) were grown in Dulbecco’s modified Eagle’s medium (DMEM; Euroclone, Pero, Italy) containing 20% foetal bovine serum (Euroclone), […] L-glutamine (Euroclone) and 100 IU mL^−1 penicillin and 100 μg mL^−1 streptomycin (Euroclone). The cells were maintained at 37 °C in a 5% CO2 humidified atmosphere.
Cellular proliferation was tested using a colorimetric assay of 3-[4,5-dimethylthiazol-2-yl]-2,5-diphenyltetrazolium bromide (MTT). We seeded 2000 cells/well in a final volume of 200 μL growth medium in 96-well plates. After 24 h the cells were stimulated with or w/o the newly synthesized compounds for 24 h, or, where indicated, for 48 h. We tested seven new synthesized compounds together with RSV reference at different concentration (1, 10, 100 μM). All compounds were dissolved in DMSO and the experimental dilutions used were made using cellular growth medium. For this reason, the cells were also incubated for 24 h with the DMSO at the same concentration used for the compounds. Incubation was terminated by adding 20 μL of MTT solution (5 mg mL^−1 in phosphate-buffered saline (PBS)) to each well, followed by incubation at 37 °C for 3 h in the dark. After, the plates were centrifuged at 2000 rpm for 15 min. The supernatant was removed, 200 μL dimethylsulfoxide (DMSO) was added to each well, and the plates were incubated for 30 min at 37 °C in the dark. Finally, the plates were read at 540 nm on a scanning multi-well spectrophotometer (Cary50MPR, Varian, Santa Clara, CA, USA).
(In general: Tetrazolium dyes change colour on reduction, which living cells bring about.)

Data set [4] concerns C2C12 cells. Kind of data set: H2DCFDA assay, intracellular ROS after H2O2 insult. Type of data set: cell-based, mouse. How it is done:
Indeed, the antioxidant activity of compound 6 was also evaluated using an H2DCFDA assay (Figure 6). This assay is one of the most widely used techniques for directly measuring the redox state of a cell. In order to accurately measure ROS and the cellular capability to counteract the H2O2 insult, we used cell-permeable fluorescent and chemiluminescent probes. The fluorescence intensity is proportional to the ROS levels within the cell cytosol and it is in inverse relation to the antioxidant capacity of the cells themselves. The ability to restore the basal level of fluorescence are reported in Figure 6, after 0.5 and 10 min following oxidant stimulus.
Intracellular ROS were quantified by the 2′,7′-dichlorodihydrofluorescein diacetate (H2DCF-DA Cat. No. D6883; Sigma). C2C12 cells were plated (2000 cells/well) into special optics 96-well plates (Corning-Costar, New York, NY, USA) and the cells were treated with RSV at 1 µM and Compound 6 at 1 and 10 µM for 24 h. After the incubation, cells were washed with an imaging buffer and treated with 300 µM H2O2 for an immediate fluorescence measurement. Plates were read every 50 s from 0 to 10 min for kinetic data analysis using a microplate reader (Synergy H1, BioTek), with excitation and emission wavelengths at 490 nm and 520 nm, respectively, and analyzed by Gen 5 version 2.08 (BioTek).

On the set-up of data set [5]: method as in PMID 29315886, PMID 15779070. The settings on record: compared with RSV; cited from earlier work.

For `Oc1ccc(/C=C/c2ccc(C(F)(F)F)cc2)cc1Cl` [Compound 6, 2-Chloro-4-{(E)-2-[4-(trifluoromethyl)phenyl]vinyl}phenol], the melting point (commonly the temperature of the solid-liquid transition) was 117 to 118.4 °C. Further, in data set [1] (60% MeOH), the Log k is given as 1.4227 and the “Retention factor (k)” value is listed as 26.4651. For the same compound, in data set [1] (65% MeOH), the Log k was 1.0820 and the “Retention factor (k)” value is reported as 12.0776. In addition, in data set [1] (70% MeOH), the Log k is on record as 0.7645 and the “Retention factor (k)” value is 5.8149. Further, in data set [1] (75% MeOH), the Log k is 0.4605 and the “Retention factor (k)” value was 2.8871. In data set [1] (80% MeOH), the Log k is 0.1498 and the “Retention factor (k)” value is recorded as 1.4118. The chromatographic logP (commonly a lipophilicity value derived from retention on a column) in data set [1] (Log P estimated by RP-HPLC, extrapolated to 0% MeOH, SD at 95% confidence interval) was 5.21 ± 0.06. The “O2- levels (NBT assay)” value with C2C12 cells [2] is reported as “significant decrease of O2^- levels”. In the data set on C2C12 cells [3] (C2C12, 24 h, 100 μM), the “cell vitality (MTT reduction)” value was “drastically reduced the vitality”. In the data set on C2C12 cells [3] (C2C12, 24 h, 1 and 10 μM), the “cell vitality (MTT reduction)” value is “significant increase of the cell vitality”. The “cell vitality (MTT reduction)” value in the data set with C2C12 cells [3] (C2C12, 48 h, 1 μM) is “moderate effect”. The “cell vitality (MTT reduction)” value with C2C12 cells [3] (C2C12, 48 h, 10 μM) is “higher effect”. Further, the “cell vitality (MTT reduction)” value in the data set on C2C12 cells [3] (C2C12, 48 h, 1 and 10 μM) is on record as “enhanced vitality”. Moreover, the “antioxidant capacity with respect to RSV” value in the data set on C2C12 cells [4] (C2C12, 10 μM, 300 µM H2O2) was “significantly higher antioxidant capacity”. Further, the “oxidant insult by H2O2 (H2DCFDA fluorescence)” value in the data set with C2C12 cells [4] (C2C12, 10 μM, 24 h pretreatment, 300 µM H2O2, stable throughout time-course) is on record as “strongly counteracted”. For the same compound, the “ROS levels (H2DCFDA fluorescence)” value in the data set with C2C12 cells [4] (C2C12, 24 h pretreatment, 300 µM H2O2, compared to CTRL) is “reduce the ROS levels”.

For the compound `COc1cc(/C=C/c2ccc(O)cc2)cc(OC)c1` [pterostilbene], the metabolic stability result in data set [5] is “more metabolically stable”.

(Values after PMC7731283, “Synthesis and Biological Evaluation of Halogenated E-Stilbenols as Promising Antiaging Agents” (Molecules, 2020).)
